In patent US8222218B2, “Cyclopropanated carbohydrates” (Seton Hall University, priority 2008, dated 2012):

Biological target: T1, cloned, human D1 receptor (Homo sapiens, UniProt P21728)
T1 construct: expressed in transfected cells
Experiment: Radioligand competition binding assay, [3H]SCH23390
Description: Receptor binding profiles were provided by the National Institute of Mental Health's Psychoactive Drug Screening Program, Contract # N01 MH32004 (NIMH PDSP) The NIMH PDSP is directed by Bryan L. Roth M. D., Ph.D. at the University of North Carolina at Chapel Hill and Project Officer Jamie Driscol at NIMH, Bethesda Md., USA. Protocols for receptor-based assays by the PDSP may be found on the website: http://pdsp.med.unc.edu/pdspw/binding.php and http://pdsp.med.unc.edu/pdspw/function.php (Apr. 30, 2008).
Radioligand competition binding assays were performed as previously described (Rothman, R. B., Baumann, M. H., Savage, J. E., Rauser, L., McBride, Hufeisen, S. J., Roth B. L. Circulation (2000) 102:2836-2841) for Compounds 7 and 16. Briefly, test compounds were dissolved to 10 mM in 100% DMSO, then diluted to the desired concentrations (spanning seven orders of magnitude) in Dopamine Binding Buffer (50 mM NaCl, 50 mM HEPES, 5 mM MgCl2, 0.5 mM EDTA, pH 7.4). Diluted test and reference compounds were added to wells containing radioligand ([^3H]SCH23390, 0.3 nM final concentration) and buffer, then membrane fractions from cells stably expressing cloned, human D1 or D5 receptors were added and binding was allowed to equilibrate at room temperature for 1.5 hours. At equilibrium, reactions were filtered (using a FilterMate 96-well harvester, PerkinElmer) onto GF-A glass fiber filters (Wallac) and allowed to dry. Meltilex scintillant (Wallac) was melted onto the dry filters, and then allowed to cool. Filters were then sealed in plastic bags and counted on a Wallac TriLux microbeta counter.
Raw data (dpm) representing total radioligand binding (i.e., specific+non-specific binding) were plotted as a function of the logarithm of the molar concentration of the competitor (i.e., test or reference compound). Non-linear regression of the normalized (i.e., percent radioligand binding compared to that observed in the absence of test or reference compound) raw data is performed in Prism 4.0 (GraphPad Software) using the built-in three parameter logistic model describing ligand competition binding to radioligand-labeled sites: y=bottom+[(top−bottom)/(1+10^x−logIC50)] where bottom equals the residual radioligand binding measured in the presence of 10 μM reference compound (i.e., non-specific binding) and top equals the total radioligand binding observed in the absence of competitor. The log IC50 (i.e., the log of the ligand concentration that reduces radioligand binding by 50%) is thus estimated from the data and used to obtain the Ki by applying the Cheng-Prusoff approximation: Ki=IC50/(1+[ligand]/KD) where [ligand] equals the assay radioligand concentration and KD equals the affinity constant of the radioligand for the target receptor.

T1 sequence (P21728 whole entry): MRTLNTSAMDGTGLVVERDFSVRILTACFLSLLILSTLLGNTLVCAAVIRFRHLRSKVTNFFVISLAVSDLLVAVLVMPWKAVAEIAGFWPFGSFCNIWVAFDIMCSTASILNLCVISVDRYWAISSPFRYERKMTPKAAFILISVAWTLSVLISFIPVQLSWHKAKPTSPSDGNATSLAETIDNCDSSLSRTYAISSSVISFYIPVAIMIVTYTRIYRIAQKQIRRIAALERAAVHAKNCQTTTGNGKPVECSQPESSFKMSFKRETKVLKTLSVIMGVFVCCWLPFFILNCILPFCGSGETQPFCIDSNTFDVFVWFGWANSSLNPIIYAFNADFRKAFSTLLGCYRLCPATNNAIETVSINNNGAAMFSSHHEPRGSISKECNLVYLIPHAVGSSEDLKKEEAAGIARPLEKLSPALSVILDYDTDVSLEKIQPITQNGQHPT

CCOC(=O)C1[C@@H]2[C@@H](O)[C@@H]3O[C@H](c4ccc(OC)cc4)OC[C@H]3O[C@H]12 (stereo partly drawn) [Compound 16, ethyl (2R,4aR,5aS,6aR,7R,7aS)-7-hydroxy-2-(4-methoxyphenyl)hexahydro-4H-cyclopropa[5,6]pyrano[3,2-d][1,3]dioxine-6-carboxylate]
Ki (D1 dopamine receptor, [3H]SCH23390 0.3 nM, Cheng-Prusoff): 4.74 µM | inhibition of the D1 dopamine receptor (radioligand competition binding): significant inhibition
